Target: PKC θ (Homo sapiens, UniProt Q04759)
Assay: PKC θ enzyme inhibition test (TR-FRET)
Type: biochemical
Conditions: 1 μM test compound, well without enzyme = 100% inhibition
Protocol: PKC θ enzyme inhibitory activities of test compounds were measured by TR-FRET method. First, a test compound diluted with assay buffer (20 mM Tris-HCl (pH 7.5), 5 mM MgAcetate, 0.1 mM CaCl2, 1 mM DTT, 0.01% Tween20, 0.05% BSA, 10% PKC Activator (Millipore)) was added to 384-well plate at 2 μL each. Then, a solution diluted with assay buffer to […] of PKC θ and 1.2 μM of a fluorescence-labeled peptide substrate (Fluorescein-PKC Substrate, Life Technologies) was added by 2 μL. Then, enzyme reaction was started by adding 2 μL each of ATP solution prepared with assay buffer to 60 μM. After the reaction at room temperature for 1 hr, TR-FRET Dilution Buffer (Life Technologies) prepared to 20 mM EDTA, 0.6 nM terbium-labeled anti-phosphoserine antibody (Life Technologies) was added by 6 μL. After standing at room temperature for 1 hr, fluorescence intensity (excitation wavelength 340 nm, fluorescence wavelength 520 nm, delay time 100 microseconds) was measured by a plate reader, Envision (PerkinElmer). The inhibitory activity of each compound was calculated as relative activity value where fluorescence intensity of a well without enzyme is considered as 100% inhibition.

PKC θ, sequence (Q04759 whole entry): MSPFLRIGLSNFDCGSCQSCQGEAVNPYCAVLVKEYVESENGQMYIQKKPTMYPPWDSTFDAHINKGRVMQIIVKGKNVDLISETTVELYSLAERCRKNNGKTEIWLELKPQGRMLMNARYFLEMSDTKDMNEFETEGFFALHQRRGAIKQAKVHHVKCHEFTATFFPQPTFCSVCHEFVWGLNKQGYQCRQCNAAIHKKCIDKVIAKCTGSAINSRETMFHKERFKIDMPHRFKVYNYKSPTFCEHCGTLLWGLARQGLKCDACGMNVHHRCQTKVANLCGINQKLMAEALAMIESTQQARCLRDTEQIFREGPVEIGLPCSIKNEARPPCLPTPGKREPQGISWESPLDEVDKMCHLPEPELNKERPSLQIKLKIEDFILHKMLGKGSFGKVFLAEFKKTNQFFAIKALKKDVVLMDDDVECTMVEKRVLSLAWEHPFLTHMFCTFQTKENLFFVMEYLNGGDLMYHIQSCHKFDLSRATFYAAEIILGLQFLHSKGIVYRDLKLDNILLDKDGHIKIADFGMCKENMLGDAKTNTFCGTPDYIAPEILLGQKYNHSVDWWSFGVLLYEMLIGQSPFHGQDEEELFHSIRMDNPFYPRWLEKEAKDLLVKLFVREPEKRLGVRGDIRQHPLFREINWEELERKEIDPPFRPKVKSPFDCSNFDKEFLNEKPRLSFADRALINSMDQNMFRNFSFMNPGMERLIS

PKC θ inhibitory activity (%, 1 μM) [%] | SMILES
91 | CCOc1ccnc2[nH]c(=O)n(-c3ccc4ncc(CC)n4n3)c12 [Example 12, 7-ethoxy-1-(3-ethylimidazo[1,2b]pyridazin-6-yl)-1,3-dihydro-2H-imidazo[4,5-b]pyridin-2-one]

Same assay, conditions: 1 μM test compound, well without enzyme = 100% inhibition, read-out: PKC θ inhibitory activity (%, 1 μM)

SMILES | inhibition at 1 µM [%]
CCOc1ccnc2[nH]c(=O)n(-c3ccc4ncc(-c5cnn(C)c5)c(OC)c4c3)c12 [Example 177, 7-ethoxy-1-(4-methoxy-3-(1-methyl-1H-pyrazol-4-yl)quinolin-6-yl)-1,3-dihydro-2H-imidazo[4,5-b]pyridin-2-one] | 100
CCOc1ccnc2[nH]c(=O)n(-c3ccc4ncn(C)c4c3)c12 [Example 7, 7-ethoxy-1-(1-methyl-1H-benzimidazol-6-yl)-1,3-dihydro-2H-imidazo[4,5-b]pyridin-2-one] | 100
CCOc1ccnc2[nH]c(=O)n(-c3ccc4nccc(C(N)=O)c4c3)c12 [Example 27, 6-(7-ethoxy-2-oxo-2,3-dihydro-1H-imidazo[4,5-b]pyridin-1-yl)quinoline-4-carboxamide] | 90
CCOc1ccnc2[nH]c(=O)n(-c3ccc4[nH]nc(C)c4c3)c12 [Example 18, 7-ethoxy-1-(3-methyl-1H-indazol-5-yl)-1,3-dihydro-2H-imidazo[4,5-b]pyridin-2-one] | 97
CCOc1ccnc2[nH]c(=O)n(-c3ccc4nccc(N5CCNCC5)c4c3)c12 [Example 92, 7-ethoxy-1-(4-(piperazin-1-yl)quinolin-6-yl)-1,3-dihydro-2H-imidazo[4,5-b]pyridin-2-one] | 102
CCOc1ccnc2[nH]c(=O)n(-c3ccc4nccc(OC)c4n3)c12 [Example 55, 7-ethoxy-1-(8-methoxy-1,5-naphthyridin-2-yl)-1,3-dihydro-2H-imidazo[4,5-b]pyridin-2-one] | 124
CCOc1cnc2ccc(-n3c(=O)[nH]c4nccc(OCC)c43)cc2n1 [Example 93, 7-ethoxy-1-(3-ethoxyquinoxalin-6-yl)-1,3-dihydro-2H-imidazo[4,5-b]pyridin-2-one] | 94
CCOc1ccnc2[nH]c(=O)n(-c3ccc4ncc(F)c(OC)c4c3)c12 [Example 230, 7-ethoxy-1-(3-fluoro-4-methoxyquinolin-6-yl)-1,3-dihydro-2H-imidazo[4,5-b]pyridin-2-one] | 102
CCOc1ccnc2[nH]c(=O)n(-c3ccc4ncnc(OC)c4c3)c12 [Example 39, 7-ethoxy-1-(4-methoxyquinazolin-6-yl)-1,3-dihydro-2H-imidazo[4,5-b]pyridin-2-one] | 102
CCOc1ccnc2[nH]c(=O)n(-c3ccn4ncc(CC)c4c3)c12 [Example 17, 7-ethoxy-1-(3-ethylpyrazolo[1,5-a]pyridin-5-yl)-1,3-dihydro-2H-imidazo[4,5-b]pyridin-2-one] | 100
CCOc1ccnc2[nH]c(=O)n(-c3cc4c5c(cnc4cc3F)OCCO5)c12 [Example 94, 7-ethoxy-1-(8-fluoro-2,3-dihydro[1,4]dioxino[2,3-c]quinolin-9-yl)-1,3-dihydro-2H-imidazo[4,5-b]pyridin-2-one] | 101
CCOc1ccnc2[nH]c(=O)n(-c3ccc4nncc(OC)c4c3)c12 [Example 60, 7-ethoxy-1-(4-methoxycinnolin-6-yl)-1,3-dihydro-2H-imidazo[4,5-b]pyridin-2-one] | 101

The remaining lines, values ahead:

inhibition at 1 µM [%] | SMILES
90 | CCOc1ccnc2[nH]c(=O)n(-c3ccc4ncn(C)c4n3)c12 [Example 13, 7-ethoxy-3′-methyl-3′H-1,5′-biimidazo[4,5-b]pyridin-2(3H)-one]
99 | CCOc1ccnc2[nH]c(=O)n(-c3ccc4occ(C)c4c3)c12 [Example 15, 7-ethoxy-1-(3-methyl-1-benzo-furan-5-yl)-1,3-dihydro-2H-imidazo[4,5-b]pyridin-2-one]
97 | CCOc1ccnc2[nH]c(=O)n(-c3ccc4nccc(OC)c4c3)c12 [Example 41, 7-ethoxy-1-(4-methoxyquinolin-6-yl)-1,3-dihydro-2H-imidazo[4,5-b]pyridin-2-one]
101 | CCOc1ccnc2[nH]c(=O)n(-c3ccc4ncc5c(c4c3)OCCO5)c12 [Example 75, 1-(2,3-dihydro[1,4]-dioxino[2,3-c]quinolin-9-yl)-7-ethoxy-1,3-dihydro-2H-imidazo[4,5-b]pyridin-2-one]
96 | CCOc1ccnc2[nH]c(=O)n(-c3ccc4ncc(CC)n4c3)c12 [Example 11, 7-ethoxy-1-(3-ethylimidazo[1,2-a]pyridin-6-yl)-1,3-dihydro-2H-imidazo[4,5-b]pyridin-2-one]
101 | CCOc1ccnc2[nH]c(=O)n(-c3ccc4ncc(-c5cn[nH]c5)c(OC)c4c3)c12 [Example 185, 7-ethoxy-1-(4-methoxy-3-(1H-pyrazol-4-yl)quinolin-6-yl)-1,3-dihydro-2H-imidazo[4,5-b]pyridin-2-one]
101 | COc1cnnc2ccc(-n3c(=O)[nH]c4nccc(OC5CCC5)c43)cc12 [Example 204, 7-(cyclobutyloxy)-1-(4-methoxycinnolin-6-yl)-1,3-dihydro-2H-imidazo[4,5-b]pyridin-2-one]

Source: patent US20170096422A1, “HETEROCYCLIC COMPOUND” (Takeda Pharmaceutical Company Limited, priority 2014, published 2017)
